Measured values reported in ChEMBL document CHEMBL1201862, “PubChem BioAssay data set” (2004).
Calls of active or inactive are those of the source.

Columns and labels:
[1] = target: T1, Long-chain-fatty-acid--AMP ligase FadD28 (Mycobacterium tuberculosis, UniProt P9WQ59); test: Fluorescence polarization aasay to screen for inhibitors that compete for the binding of FadD28 to a bisubstrate Measured in Biochemical System Using Plate Reader - 2147-01_Inhibitor_Dose_CherryPick_Activity.; format: functional, Mycobacterium tuberculosis H37Rv
T1 sequence (P9WQ59 whole entry): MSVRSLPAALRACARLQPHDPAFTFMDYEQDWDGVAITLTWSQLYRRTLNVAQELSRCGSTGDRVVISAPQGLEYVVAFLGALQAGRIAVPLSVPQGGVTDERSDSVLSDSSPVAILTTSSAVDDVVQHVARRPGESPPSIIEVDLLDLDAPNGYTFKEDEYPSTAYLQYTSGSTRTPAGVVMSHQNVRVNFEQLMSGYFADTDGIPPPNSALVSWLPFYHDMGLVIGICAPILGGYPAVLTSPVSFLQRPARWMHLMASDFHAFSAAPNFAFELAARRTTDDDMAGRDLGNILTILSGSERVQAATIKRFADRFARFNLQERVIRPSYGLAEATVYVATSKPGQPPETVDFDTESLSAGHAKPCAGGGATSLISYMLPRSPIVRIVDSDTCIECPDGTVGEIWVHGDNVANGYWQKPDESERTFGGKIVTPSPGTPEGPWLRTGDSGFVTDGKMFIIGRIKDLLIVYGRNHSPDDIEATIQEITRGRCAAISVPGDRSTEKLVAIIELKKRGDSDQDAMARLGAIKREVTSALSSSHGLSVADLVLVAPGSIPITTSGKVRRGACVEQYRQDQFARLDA

Fatty acid synthase [2] = target: T2, Fatty acid synthase (Homo sapiens, UniProt P49327); test: inhibition of human FAS-TE enzyme activity – biochemical, kinetic fluorescence intensity, dose response (AID 624326); format: functional;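 also: rate of fluorescence rise from hydrolysis of a fluorogenic O-methyl fluorescein ester substrate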
T2 sequence (P49327 whole entry): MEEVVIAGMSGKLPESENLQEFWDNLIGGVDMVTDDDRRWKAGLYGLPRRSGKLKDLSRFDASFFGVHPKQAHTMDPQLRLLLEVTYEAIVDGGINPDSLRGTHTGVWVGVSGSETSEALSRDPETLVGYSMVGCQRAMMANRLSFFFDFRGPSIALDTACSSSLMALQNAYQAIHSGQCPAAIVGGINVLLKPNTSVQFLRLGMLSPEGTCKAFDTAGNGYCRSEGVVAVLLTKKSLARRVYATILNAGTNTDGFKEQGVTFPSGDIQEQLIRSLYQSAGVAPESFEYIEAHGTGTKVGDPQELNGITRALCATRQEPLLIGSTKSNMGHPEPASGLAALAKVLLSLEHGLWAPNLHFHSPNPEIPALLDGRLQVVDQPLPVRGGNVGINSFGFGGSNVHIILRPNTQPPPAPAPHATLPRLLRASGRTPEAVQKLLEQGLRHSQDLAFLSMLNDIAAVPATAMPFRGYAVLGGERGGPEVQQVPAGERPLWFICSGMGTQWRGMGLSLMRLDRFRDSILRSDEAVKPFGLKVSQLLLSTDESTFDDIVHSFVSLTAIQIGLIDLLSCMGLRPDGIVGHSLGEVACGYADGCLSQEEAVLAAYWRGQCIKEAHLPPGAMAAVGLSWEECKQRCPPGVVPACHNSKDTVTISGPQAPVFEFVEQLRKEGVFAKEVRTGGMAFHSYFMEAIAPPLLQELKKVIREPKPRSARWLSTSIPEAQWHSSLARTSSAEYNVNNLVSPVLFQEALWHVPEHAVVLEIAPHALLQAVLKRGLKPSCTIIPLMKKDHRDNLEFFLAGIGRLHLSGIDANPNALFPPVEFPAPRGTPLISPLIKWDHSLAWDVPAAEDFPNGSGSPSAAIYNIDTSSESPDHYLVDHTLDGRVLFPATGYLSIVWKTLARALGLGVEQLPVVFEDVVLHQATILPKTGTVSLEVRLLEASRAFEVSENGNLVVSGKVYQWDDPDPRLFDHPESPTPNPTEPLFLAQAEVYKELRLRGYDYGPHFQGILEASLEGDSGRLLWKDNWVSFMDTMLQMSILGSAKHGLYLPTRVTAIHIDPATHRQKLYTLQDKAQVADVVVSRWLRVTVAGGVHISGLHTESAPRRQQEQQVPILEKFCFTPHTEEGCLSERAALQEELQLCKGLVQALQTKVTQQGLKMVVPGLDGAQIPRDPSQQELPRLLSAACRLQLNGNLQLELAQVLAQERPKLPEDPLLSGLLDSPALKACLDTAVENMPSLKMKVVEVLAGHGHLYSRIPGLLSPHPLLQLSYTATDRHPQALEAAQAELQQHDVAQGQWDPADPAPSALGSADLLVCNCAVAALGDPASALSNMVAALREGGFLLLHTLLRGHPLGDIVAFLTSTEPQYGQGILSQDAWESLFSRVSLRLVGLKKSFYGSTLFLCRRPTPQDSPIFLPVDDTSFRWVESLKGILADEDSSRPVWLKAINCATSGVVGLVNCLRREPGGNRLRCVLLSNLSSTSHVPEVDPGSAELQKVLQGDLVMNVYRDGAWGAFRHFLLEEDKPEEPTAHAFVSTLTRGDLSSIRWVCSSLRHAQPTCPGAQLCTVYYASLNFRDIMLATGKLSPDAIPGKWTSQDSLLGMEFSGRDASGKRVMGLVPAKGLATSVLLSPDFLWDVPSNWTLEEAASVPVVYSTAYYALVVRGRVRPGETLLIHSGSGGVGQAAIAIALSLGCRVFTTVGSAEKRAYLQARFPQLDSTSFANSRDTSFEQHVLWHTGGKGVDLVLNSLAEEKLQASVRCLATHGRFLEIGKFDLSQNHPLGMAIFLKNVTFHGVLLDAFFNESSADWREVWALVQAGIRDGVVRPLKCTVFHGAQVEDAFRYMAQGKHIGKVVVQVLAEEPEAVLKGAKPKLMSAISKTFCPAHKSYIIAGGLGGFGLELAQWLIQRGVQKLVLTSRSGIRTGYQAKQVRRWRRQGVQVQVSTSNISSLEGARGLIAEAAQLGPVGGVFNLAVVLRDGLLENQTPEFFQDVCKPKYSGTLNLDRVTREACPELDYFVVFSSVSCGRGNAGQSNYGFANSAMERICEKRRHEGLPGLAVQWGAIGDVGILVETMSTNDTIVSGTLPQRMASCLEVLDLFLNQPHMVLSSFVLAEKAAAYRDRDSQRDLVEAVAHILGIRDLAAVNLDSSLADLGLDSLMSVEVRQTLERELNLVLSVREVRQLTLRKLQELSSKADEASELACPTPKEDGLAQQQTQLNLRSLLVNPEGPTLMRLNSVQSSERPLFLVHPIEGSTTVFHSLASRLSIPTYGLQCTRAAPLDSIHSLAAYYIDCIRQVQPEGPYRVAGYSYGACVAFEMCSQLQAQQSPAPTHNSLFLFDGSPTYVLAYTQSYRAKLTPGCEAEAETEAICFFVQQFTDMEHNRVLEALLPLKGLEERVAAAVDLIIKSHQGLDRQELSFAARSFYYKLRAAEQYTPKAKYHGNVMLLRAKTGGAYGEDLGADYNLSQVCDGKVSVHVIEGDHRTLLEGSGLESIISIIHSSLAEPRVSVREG

Fatty acid synthase [3] = target: T2, Fatty acid synthase; test: inhibition of human FAS-TE enzyme activity – biochemical, endpoint fluorescence intensity, uHTS hits, dose response (AID 624327); format: functional;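 also: fluorescence from hydrolysis of an O-methyl fluorescein acyl ester substrate by the enzyme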
[4] = viability of uninfected HEp-2 cells – cell-based, HTS, cytotoxicity control for RSV inhibitor project, dose response (AID 2410); format: functional; conditions: human respiratory syncytial virus
[5] = target: T3, Replicative DNA helicase DnaB (Mycobacterium tuberculosis, UniProt P9WMR3); test: DnaB intein splicing inhibitors, dose response, biochemical, cell-free fluorescence (AID 449749); format: functional
T3 sequence (P9WMR3 whole entry): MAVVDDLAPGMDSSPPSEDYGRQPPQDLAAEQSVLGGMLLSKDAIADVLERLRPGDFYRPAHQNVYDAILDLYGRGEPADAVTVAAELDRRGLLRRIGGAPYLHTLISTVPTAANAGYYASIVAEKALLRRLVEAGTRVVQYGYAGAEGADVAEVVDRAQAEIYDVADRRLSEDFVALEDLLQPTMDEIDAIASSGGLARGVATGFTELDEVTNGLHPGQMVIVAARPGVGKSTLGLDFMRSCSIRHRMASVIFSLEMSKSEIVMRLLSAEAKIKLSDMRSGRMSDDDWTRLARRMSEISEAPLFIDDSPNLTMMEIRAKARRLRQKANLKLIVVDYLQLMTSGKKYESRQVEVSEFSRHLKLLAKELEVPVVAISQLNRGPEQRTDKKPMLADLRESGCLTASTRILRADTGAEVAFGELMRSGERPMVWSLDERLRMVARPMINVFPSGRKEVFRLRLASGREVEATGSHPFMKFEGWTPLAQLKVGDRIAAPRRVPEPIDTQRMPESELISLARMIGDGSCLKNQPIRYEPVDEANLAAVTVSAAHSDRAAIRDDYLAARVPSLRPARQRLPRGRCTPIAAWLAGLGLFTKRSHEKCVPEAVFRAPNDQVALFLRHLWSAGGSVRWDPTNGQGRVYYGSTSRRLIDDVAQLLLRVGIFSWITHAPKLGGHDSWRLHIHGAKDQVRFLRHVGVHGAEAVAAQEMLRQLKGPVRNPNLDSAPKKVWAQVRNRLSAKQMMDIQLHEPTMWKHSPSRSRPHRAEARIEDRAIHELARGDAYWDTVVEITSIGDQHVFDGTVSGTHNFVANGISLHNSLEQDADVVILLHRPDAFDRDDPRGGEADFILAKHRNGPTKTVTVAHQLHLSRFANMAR

Beta-galactosidase = Beta-galactosidase (Escherichia coli, UniProt Q8VNN2); test: PubChem AID 485352; format: functional
Chain of Beta-galactosidase (Q8VNN2 whole entry): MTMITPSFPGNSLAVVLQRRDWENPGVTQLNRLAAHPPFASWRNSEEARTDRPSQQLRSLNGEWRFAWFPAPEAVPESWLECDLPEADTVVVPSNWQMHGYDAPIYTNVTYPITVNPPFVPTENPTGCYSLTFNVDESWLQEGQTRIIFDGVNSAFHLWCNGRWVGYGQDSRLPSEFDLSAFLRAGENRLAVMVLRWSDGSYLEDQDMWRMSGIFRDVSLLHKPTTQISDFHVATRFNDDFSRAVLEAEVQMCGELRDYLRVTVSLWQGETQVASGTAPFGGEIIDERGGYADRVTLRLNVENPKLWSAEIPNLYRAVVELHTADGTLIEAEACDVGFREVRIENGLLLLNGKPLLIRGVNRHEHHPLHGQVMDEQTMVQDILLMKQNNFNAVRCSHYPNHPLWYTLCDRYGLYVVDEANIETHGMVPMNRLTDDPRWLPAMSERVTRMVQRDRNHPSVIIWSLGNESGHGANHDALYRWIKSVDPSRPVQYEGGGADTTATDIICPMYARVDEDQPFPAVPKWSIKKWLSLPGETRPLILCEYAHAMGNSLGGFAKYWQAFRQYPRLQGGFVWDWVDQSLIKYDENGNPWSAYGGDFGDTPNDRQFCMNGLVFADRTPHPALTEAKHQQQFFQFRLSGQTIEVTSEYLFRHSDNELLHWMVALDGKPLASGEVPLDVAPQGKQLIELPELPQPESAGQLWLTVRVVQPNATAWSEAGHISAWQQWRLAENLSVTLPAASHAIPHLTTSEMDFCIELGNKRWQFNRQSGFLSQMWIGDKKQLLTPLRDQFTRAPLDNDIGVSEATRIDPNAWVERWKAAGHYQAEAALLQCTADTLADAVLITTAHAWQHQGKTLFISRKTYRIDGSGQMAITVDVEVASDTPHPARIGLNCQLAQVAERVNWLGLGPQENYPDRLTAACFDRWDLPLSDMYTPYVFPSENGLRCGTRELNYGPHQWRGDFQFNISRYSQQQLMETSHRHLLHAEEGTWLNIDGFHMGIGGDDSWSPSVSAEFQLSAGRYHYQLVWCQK

Protein RecA = target: T4, Protein RecA (Mycobacterium tuberculosis, UniProt P9WHJ3); test: Fluorescence Cell-Free Homogeneous Dose Retest to Identify Inhibitors of RecA-Intein Splicing Activity. [Related pubchem assays (depositor defined):AID2097, AID2223, AID489010, AID492950]; format: functional
T4 sequence (P9WHJ3 whole entry): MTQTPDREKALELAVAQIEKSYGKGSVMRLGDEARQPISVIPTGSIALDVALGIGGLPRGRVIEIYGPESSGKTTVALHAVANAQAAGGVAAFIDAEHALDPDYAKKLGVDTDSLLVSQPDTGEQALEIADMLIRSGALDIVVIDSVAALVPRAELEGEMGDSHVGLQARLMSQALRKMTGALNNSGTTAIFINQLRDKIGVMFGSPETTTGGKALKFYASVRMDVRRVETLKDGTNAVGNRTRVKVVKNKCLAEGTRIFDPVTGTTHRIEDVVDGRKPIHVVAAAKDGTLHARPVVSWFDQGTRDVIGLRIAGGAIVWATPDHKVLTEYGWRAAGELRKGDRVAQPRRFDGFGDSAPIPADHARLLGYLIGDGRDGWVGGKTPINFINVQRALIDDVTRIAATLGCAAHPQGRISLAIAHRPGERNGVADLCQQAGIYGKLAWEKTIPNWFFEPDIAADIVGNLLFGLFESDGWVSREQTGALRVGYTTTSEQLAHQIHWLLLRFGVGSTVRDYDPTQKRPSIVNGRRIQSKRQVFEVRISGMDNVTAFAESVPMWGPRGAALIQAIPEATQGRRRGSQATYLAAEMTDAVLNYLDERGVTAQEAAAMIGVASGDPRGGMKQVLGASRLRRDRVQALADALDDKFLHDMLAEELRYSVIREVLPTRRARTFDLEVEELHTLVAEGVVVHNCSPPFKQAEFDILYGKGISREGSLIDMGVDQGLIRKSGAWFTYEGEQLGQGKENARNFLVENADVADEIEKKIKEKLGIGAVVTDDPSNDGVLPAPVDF

[6] = target: T5, Type-1 angiotensin II receptor (Homo sapiens, UniProt P30556); test: antagonism of angiotensin II type 1 receptor – cell-based, uHTS hits, selectivity assay for APJ receptor antagonist project, dose response (AID 463214); format: functional;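 also: antagonist potency against angiotensin II stimulated AT1 response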
T5 sequence (P30556 whole entry): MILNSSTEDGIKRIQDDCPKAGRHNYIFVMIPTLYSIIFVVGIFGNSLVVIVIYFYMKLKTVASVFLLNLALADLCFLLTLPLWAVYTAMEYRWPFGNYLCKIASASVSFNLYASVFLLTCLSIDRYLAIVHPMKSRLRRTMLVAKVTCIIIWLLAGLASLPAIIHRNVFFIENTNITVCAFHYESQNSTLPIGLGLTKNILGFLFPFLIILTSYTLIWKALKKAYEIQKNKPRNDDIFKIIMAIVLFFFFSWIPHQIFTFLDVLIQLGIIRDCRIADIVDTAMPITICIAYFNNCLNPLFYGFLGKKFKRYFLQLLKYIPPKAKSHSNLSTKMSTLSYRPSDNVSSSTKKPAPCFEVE

[7] = tested on: Streptococcus sp. 'group A'; test: Streptococcus pyogenes SK(-)GAS viability under kanamycin – luminescence, BacTiterGlo, confirmation, counter-screen for streptokinase expression inhibitor project, dose response (AID 1900); format: functional, organism-based
Streptokinase A = target: T6, Streptokinase A (Streptococcus pyogenes serotype M1, UniProt P10520); test: viability-normalized secreted streptokinase activity reduction – plasminogen activation absorbance, OD405, dose response (AID 1914); format: functional, Streptococcus pyogenes M1 GAS;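 also: secreted streptokinase activity via plasminogen activation per viability signal from cell pellet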
T6 sequence (P10520 whole entry): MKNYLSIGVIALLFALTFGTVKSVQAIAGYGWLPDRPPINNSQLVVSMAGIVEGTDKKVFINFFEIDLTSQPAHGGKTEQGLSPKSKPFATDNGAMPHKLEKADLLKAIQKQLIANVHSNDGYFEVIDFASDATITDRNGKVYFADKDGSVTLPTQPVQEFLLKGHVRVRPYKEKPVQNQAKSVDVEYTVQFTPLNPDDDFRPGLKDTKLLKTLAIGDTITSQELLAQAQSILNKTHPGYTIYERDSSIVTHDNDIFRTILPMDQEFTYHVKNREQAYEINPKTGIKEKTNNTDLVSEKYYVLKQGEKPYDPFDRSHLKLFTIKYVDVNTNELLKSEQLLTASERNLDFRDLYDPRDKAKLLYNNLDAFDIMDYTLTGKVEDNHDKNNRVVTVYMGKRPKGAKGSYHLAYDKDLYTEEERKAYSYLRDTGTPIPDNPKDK

Streptococcus = test: GAS UMAA2166 growth inhibition – luminescence, BacTiterGlo, counter-screen for streptokinase expression inhibitor project, dose response (AID 1915); format: functional, organism-based;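 also: potency for reduction of bacterial viability or growth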
[8] = target: Dual specificity tyrosine-phosphorylation-regulated kinase 1A (Rattus norvegicus, UniProt Q63470); format: biochemical, Homo sapiens
[9] = HEK-293T viability loss after treatment – luminescence, T-cell screen hits, cytotoxicity control for TCR NF-kB inhibitor project, dose response (AID 489026); format: functional, cell-based;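 also: cells exposed to compound about 14 hours before the viability readout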

CCC(C(=O)NC1CCCCC1)n1c(SCc2ccccc2F)nc2ccncc21 (stereo not drawn)
AC50 [1]: > 100 µM (inactive)

O=C(N/C(=C\c1ccc(Br)cc1)C(=O)N1CCOCC1)c1ccc([N+](=O)[O-])cc1
IC50 (Fatty acid synthase [2]): 0.286 µM (active) | IC50 (Fatty acid synthase [3]): 0.262 µM (active)

Cc1cccc2cc(/C=N/Nc3ccc(C(=O)O)cc3)c(Cl)nc12
IC50 (Fatty acid synthase [2]): 18.3 µM (active) | IC50 (Fatty acid synthase [3]): 27.4 µM (inactive)

CCCSc1cc(NCCOC(=O)CCC)c([N+](=O)[O-])c2nonc12
CC50 [4]: 14.8 µM (active) | AC50 [5]: 55 µM (active) | EC50 (Beta-galactosidase): > 40 µM (inactive) | IC50 (Fatty acid synthase [2]): 16.5 µM (active) | EC50 (Protein RecA): 4.48 µM (active) | IC50 (Fatty acid synthase [3]): 16.3 µM (active) | IC50 [6]: 11 µM (active)

O=C(CN1C(=O)S/C(=C\c2cc(Cl)c(O)c(Cl)c2)C1=O)Nc1ccccc1
AC50 [1]: 3.49 µM (active)

COc1ccc2c(c1)C(=NNc1ccc(C(=O)O)cc1)c1cc(OC)ccc1-2
CC50 [4]: 13.7 µM (active) | EC50 [7]: 6.28 µM (active) | AC50 [1]: 88 µM (active) | EC50 (Streptokinase A): > 150 µM (not active) | IC50 (cells): 10.8 µM (active) | EC50 (Streptococcus): 12.4 µM (active) | AC50 [8]: 0.02 µM (active)

COc1ccc(OC)c(COC(=O)c2cc([N+](=O)[O-])ccc2N2CCOCC2)c1
IC50 (Fatty acid synthase [2]): 15.4 µM (active) | IC50 (Fatty acid synthase [3]): 11.4 µM (active) | IC50 [9]: > 80 µM (inactive)
